Legend:
[1] = biological target: T1, GDP-mannose dehydrogenase (GMD) (Pseudomonas aeruginosa, UniProt P11759); assay: inhibition of NADH formation at […] nm; assay type: biochemical; details: read-out: Percentage of GMD Inhibition at the Final Concentration of
T1 construct: gene algD; native full-length protein purified from mucoid P. aeruginosa; 48 kDa polypeptide; 59 kDa apparent on gel filtration, monomer/active dimer; no tag

[2] = test system: NC(=O)c1ccc[n+]([C@@H]2O[C@H](COP(=O)(O)OP(=O)(O)OC[C@H]3O[C@@H](n4cnc5c(N)ncnc54)[C@H](O)[C@@H]3O)[C@@H](O)[C@H]2O)c1; assay: purified protein; details: co-substrate GDP-mannose, 10 mM MgSO4, 0.2 M glycyl-glycine pH 8.5, 37 °C, strain not stated, varied: cofactor
[3] = test system: Nc1nc2c(ncn2[C@@H]2O[C@H](COP(=O)(O)OP(=O)(O)O[C@H]3O[C@H](CO)[C@@H](O)[C@H](O)[C@@H]3O)[C@@H](O)[C@H]2O)c(=O)[nH]1; assay: purified protein; details: strong-affinity site of two (negative cooperativity), strains NK 125502 and A22 alg^+, 1 mM NAD+, 10 mM MgSO4, 0.2 M glycyl-glycine pH 8.5, 37 °C
[4] = biological target: T1, GDP-mannose dehydrogenase (GMD); assay: NADH formation at […] nm, Dixon plot; assay type: biochemical

T1 sequence (P11759 whole entry): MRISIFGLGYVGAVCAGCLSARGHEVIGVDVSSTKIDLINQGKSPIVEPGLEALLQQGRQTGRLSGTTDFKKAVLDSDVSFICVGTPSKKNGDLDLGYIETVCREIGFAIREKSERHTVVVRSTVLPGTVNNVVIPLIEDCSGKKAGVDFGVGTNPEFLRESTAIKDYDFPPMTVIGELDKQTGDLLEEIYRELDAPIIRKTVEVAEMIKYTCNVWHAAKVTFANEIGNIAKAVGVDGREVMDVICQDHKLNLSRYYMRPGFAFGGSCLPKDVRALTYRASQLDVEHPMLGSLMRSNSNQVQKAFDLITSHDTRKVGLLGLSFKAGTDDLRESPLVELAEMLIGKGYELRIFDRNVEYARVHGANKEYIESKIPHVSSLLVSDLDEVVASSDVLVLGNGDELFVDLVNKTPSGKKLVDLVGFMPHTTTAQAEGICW

| Molecule | inhibition at 500 µM [1] [%] | other results |
| --- | --- | --- |
| Nc1nc2c(ncn2[C@@H]2O[C@H](CNCCCO)[C@@H](O)[C@H]2O)c(=O)[nH]1 [5′APG, 5′-(3-hydroxypropyl)-amino-5′-guanosine] | 72 ± 2 | – |
| GDP-mannose dehydrogenase (GMD) (Pseudomonas aeruginosa PAO1) | – | Km [2]: 360 µM; Km [3]: 13 µM |
| C#CC(OC(C)=O)[C@H]1O[C@H](OC(=O)NS(=O)(=O)OC[C@H]2O[C@@H](n3cnc4c(=O)[nH]c(NC(C)=O)nc43)[C@@H]3OC(C)(C)O[C@@H]32)[C@@H](OC(C)=O)[C@@H](OC(C)=O)[C@@H]1OC(C)=O (stereo partly drawn) [AM5′ASG, alcynyl-6-tetra-O-acetyl-mannose-carbonyl-amino-sulfonyl-guanosine] | 90 ± 3 | – |
| Nc1nc2c(ncn2[C@@H]2O[C@H](CO)[C@@H](O)[C@H]2O)c(=O)[nH]1 [guanosine] | – | Ki [4]: ~40 µM |
| NC[C@H]1O[C@@H](n2cnc3c(=O)[nH]c(N)nc32)[C@H](O)[C@@H]1O [5′AG, 5′-amino-5′-deoxy-guanosine] | 64 ± 3 | – |

From article PMC10740432, “The GDP-Mannose Dehydrogenase of Pseudomonas aeruginosa: An Old and New Target to Fight against Antibiotics Resistance of Mucoid Strains” (Antibiotics, 2023)
